Reference: patent US8394801B2, “Quinoxaline derivatives and their use for treating benign and malignant tumour disorders” (Aeterna Zentaris GmbH, priority 2009, dated 2013)

What was measured:
A549 = assay: Proliferation assay (Alamar Blue / XTT), A549; format: cell-based; conditions: Homo sapiens; cell line A549 (lung)
PC-3 = assay: Proliferation assay (Alamar Blue / XTT), PC-3; format: cell-based; conditions: Homo sapiens, cell line PC3 (prostate)
SKOV-3 = assay: Proliferation assay (Alamar Blue / XTT), SKOV-3; format: cell-based; conditions: Homo sapiens, SK-OV-3; cell line SKOV-3 (ovaries)
NCI-H460 = assay: Proliferation assay (Alamar Blue / XTT), NCI-H460; format: cell-based; conditions: Homo sapiens; cell line NCI-H460 (lung)
U87MG = assay: Proliferation assay (Alamar Blue / XTT), U87MG; format: cell-based; conditions: Homo sapiens, U-87 MG; cell line U87MG (glioma)
MDA MB468 = assay: Proliferation assay (Alamar Blue / XTT), MDA MB468; format: cell-based; conditions: Homo sapiens, MDA-MB-468; cell line MDA-MB468 (breast)
HCT116 = assay: Proliferation assay (Alamar Blue / XTT), HCT116; format: cell-based; conditions: Homo sapiens; cell line HCT-116 (colon)

Compound | EC50 (A549) [µM] | EC50 (PC-3) [µM] | EC50 (SKOV-3) [µM] | EC50 (NCI-H460) [µM] | EC50 (U87MG) [µM] | EC50 (MDA MB468) [µM] | EC50 (HCT116) [µM] | melting point [°C]
Cc1cc(-c2ccc3ncc(NC(=O)NC4CCCCC4)nc3c2)cc(C)c1O [Compound 12, 1-Cyclohexyl-3-[7-(4-hydroxy-3,5-dimethylphenyl)quinoxalin-2-yl]urea] | 0.076 | 0.051 | 0.067 | 0.085 | 0.077 | 0.125 | 0.042 | 
Cc1cc(-c2ccc3ncc(NC(=O)Nc4cccs4)nc3c2)cc(C)c1O [Compound 15, 1-[7-(4-Hydroxy-3,5-dimethylphenyl)quinoxalin-2-yl]-3-thiophen-2-ylurea] | 0.836 | 0.309 | 1.81 | 0.714 | 1.34 | 0.835 | 0.475 | 
CCCCNC(=O)Nc1cnc2ccc(-c3cc(C)c(O)c(C)c3)cc2n1 [Compound 18, 1-Butyl-3-[7-(4-hydroxy-3,5-dimethylphenyl)quinoxalin-2-yl]urea] | 0.046 | 0.016 | 0.032 | 0.038 | 0.008 | 0.03 | 0.021 | 276 to 280
C=CCNC(=O)Nc1cnc2ccc(-c3cc(C)c(O)c(C)c3)cc2n1 [Compound 41, 1-Allyl-3-[7-(4-hydroxy-3,5-dimethylphenyl)quinoxalin-2-yl]urea] | 0.217 | 0.076 |  | 0.218 | 0.105 | 0.131 | 0.091 | 
Cc1cc(-c2ccc3ncc(NC(=O)NCC(C)(C)C)nc3c2)cc(C)c1O [Compound 67, 1-(2,2-Dimethyl-propyl)-3-[7-(4-hydroxy-3,5-dimethyl-phenyl)-quinoxalin-2-yl]-urea] | 0.352 | 0.188 |  |  | 0.222 | 0.384 | 0.325 | 275 to 276
CC(C)NC(=O)Nc1cnc2ccc(-c3ccc(N)cc3)cc2n1 [Compound 68, 1-[7-(4-Amino-phenyl)-quinoxalin-2-yl]-3-isopropyl-urea] | 0.626 | 0.453 |  |  | 0.529 | 1.67 | 0.474 | > 300
CC(C)NC(=O)Nc1cnc2ccc(-c3cnn(C)c3)cc2n1 [Compound 70, 1-Isopropyl-3-[7-(1-methyl-1H-pyrazol-4-yl)-quinoxalin-2-yl]-urea] | 1.32 | 0.601 |  |  | 0.801 | 0.991 | 0.564 | 260 to 263
CCCCNC(=O)Nc1cnc2ccc(-c3cc(Cl)c(O)c(Cl)c3)cc2n1 [Compound 72, 1-Butyl-3-[7-(3,5-dichloro-4-hydroxy-phenyl)-quinoxalin-2-yl]-urea] | 3.26 | 0.88 |  |  | 3.19 | 0.779 | 1.82 | 297 to 298
CCCNC(=O)Nc1cnc2ccc(-c3cc(Cl)c(O)c(Cl)c3)cc2n1 [Compound 73, 1-[7-(3,5-Dichloro-4-hydroxy-phenyl)-quinoxalin-2-yl]-3-propyl-urea] | 3.36 | 1.18 |  |  | 4.14 | 0.814 | 1.56 | 295 to 296
CCNC(=O)Nc1cnc2ccc(-c3cc(Cl)c(O)c(Cl)c3)cc2n1 [Compound 74, 1-[7-(3,5-Dichloro-4-hydroxy-phenyl)-quinoxalin-2-yl]-3-ethyl-urea] | 3.91 | 2.2 |  |  | 10 | 2.1 | 3.09 | 295 to 296
O=C(Nc1cnc2ccc(-c3cc(Cl)c(O)c(Cl)c3)cc2n1)NC1CCCCCC1 [Compound 78, 1-Cycloheptyl-3-[7-(3,5-dichloro-4-hydroxy-phenyl)-quinoxalin-2-yl]-urea] | 1.18 | 0.306 |  |  | 3.11 | 0.436 | 0.809 | 283 to 286
O=C(Nc1cnc2ccc(-c3cc(Cl)c(O)c(Cl)c3)cc2n1)NC1CCCCCCC1 [Compound 79, 1-Cyclooctyl-3-[7-(3,5-dichloro-4-hydroxy-phenyl)-quinoxalin-2-yl]-urea] | 1.03 | 0.3 |  |  | 1.16 | 0.253 | 0.503 | 258 to 260
Oc1c(Cl)cc(-c2ccc3ncc(NC(=S)NC4CCC4)nc3c2)cc1Cl [Compound 80, 1-Cyclobutyl-3-[7-(3,5-dichloro-4-hydroxy-phenyl)-quinoxalin-2-yl]-thiourea] | 2.04 | 1.19 |  |  | 2 | 0.672 | 1.71 | 277 to 280
Oc1c(Cl)cc(-c2ccc3ncc(NC(=S)NC4CC4)nc3c2)cc1Cl [Compound 83, 1-Cyclopropyl-3-[7-(3,5-dichloro-4-hydroxy-phenyl)-quinoxalin-2-yl]-thiourea] | 2.29 | 0.955 |  |  | 1.97 | 1.05 | 2.09 | 260 to 262
O=C(NCCc1ccccc1)Nc1cnc2ccc(-c3cc(Cl)c(O)c(Cl)c3)cc2n1 [Compound 85, 1-[7-(3,5-Dichloro-4-hydroxy-phenyl)-quinoxalin-2-yl]-3-phenethyl-urea] | 1.84 | 1.26 |  |  | 0.495 | 1.61 | 1.3 | 
CCCCNC(=S)Nc1cnc2ccc(-c3cc(Cl)c(O)c(Cl)c3)cc2n1 [Compound 87, 1-Butyl-3-[7-(3,5-dichloro-4-hydroxy-phenyl)-quinoxalin-2-yl]thiourea] | 1.53 | 0.79 |  |  | 2.49 | 0.464 | 1.09 | 226 to 227
CCCCCNC(=S)Nc1cnc2ccc(-c3cc(Cl)c(O)c(Cl)c3)cc2n1 [Compound 90, 1-[7-(3,5-Dichloro-4-hydroxy-phenyl)-quinoxalin-2-yl]-3-pentyl-thiourea] | 1.09 | 0.556 |  |  | 1.23 | 0.318 | 1.01 | 237 to 238
Oc1c(Cl)cc(-c2ccc3ncc(NC(=S)NC4CCCCCCC4)nc3c2)cc1Cl [Compound 93, 1-Cyclooctyl-3-[7-(3,5-dichloro-4-hydroxy-phenyl)-quinoxalin-2-yl]-thiourea] | 1.03 | 0.334 |  |  | 1.8 | 0.193 | 0.409 | 288 to 289
Oc1c(Cl)cc(-c2ccc3ncc(NC(=S)NCc4ccccc4)nc3c2)cc1Cl [Compound 94, 1-Benzyl-3-[7-(3,5-dichloro-4-hydroxy-phenyl)-quinoxalin-2-yl]-thiourea] | 0.891 | 0.821 |  |  | 2.08 | 0.169 | 0.586 | 275 to 277
Oc1c(Cl)cc(-c2ccc3ncc(NC(=S)NCCCc4ccccc4)nc3c2)cc1Cl [Compound 96, 1-[7-(3,5-Dichloro-4-hydroxy-phenyl)-quinoxalin-2-yl]-3-(3-phenyl-propyl)-thiourea] | 1.82 | 1.65 |  |  | 2.35 | 1.04 | 1.54 | 248 to 250
Oc1c(Cl)cc(-c2ccc3ncc(NC(=S)NCCc4ccccc4)nc3c2)cc1Cl [Compound 97, 1-[7-(3,5-Dichloro-4-hydroxy-phenyl)-quinoxalin-2-yl]-3-phenethyl-thiourea] | 1.51 | 0.538 |  |  | 1.82 | 0.568 | 0.7 | 282 to 285
